# Assay results reported in patent US20060094002A1 (priority 2002, published 2006).
# System: Aspergillus (A. nidulans, A. niger, A. awamori)
# Experiment: Effect of known antifungal drugs on [Ca2+]c in different Aspergillus species
# Format: cell-based
# Conditions: FIGS. 22a, b
# Description: Procedure: • The fungus can be either transformed with the recombinant aequorin gene or can be injected with the active aequorin. • Then this fungus can be subjected to a range of the antifungal drugs, profiles of which have already been created. • Obtained profiles can be compared with the library of the fingerprints and this way the fungal species can be identified.
row,SMILES,[Ca^2+]c response in 3 different species of Aspergillus
1,C[C@@H]1[C@H](O)[C@@H](C)/C=C/C=C/C=C/C=C/C=C/C=C/C=C/[C@H](O[C@@H]2O[C@H](C)[C@@H](O)[C@H](N)[C@@H]2O)C[C@@H]2O[C@](O)(C[C@@H](O)C[C@@H](O)[C@H](O)CC[C@@H](O)C[C@@H](O)CC(=O)O[C@H]1C)C[C@H](O)[C@H]2C(=O)O [amphotericin B],caused a different [Ca^2+]c response
2,Clc1ccccc1C(c1ccccc1)(c1ccccc1)n1ccnc1 [clotrimazole],caused a different [Ca^2+]c response
3,CCCCC[C@@H](O)[C@H]1C(=O)O[C@H](C)[C@@H](O)/C=C/C=C/C=C/C=C/C=C(\C)[C@@H](O)C[C@H](O)C[C@H](O)C[C@H](O)C[C@H](O)C[C@H](O)C[C@@H]1O [filipin],caused a different [Ca^2+]c response
4,CC(=O)N1CCN(c2ccc(OCC3COC(Cn4ccnc4)(c4ccc(Cl)cc4Cl)O3)cc2)CC1 (centres unmarked) [ketoconazole],caused a different [Ca^2+]c response
5,C[C@@H]1[C@H](O)[C@@H](C)/C=C/C=C/CC/C=C/C=C/C=C/C=C/C(O[C@H]2O[C@H](C)[C@@H](O)[C@H](N)[C@@H]2O)CC2O[C@](O)(CC(O)C(O)CCC(O)CC(O)CC(O)CC(=O)O[C@H]1C)CC(O)C2C(=O)O (some centres unmarked) [nystatin],caused a different [Ca^2+]c response
